Source: US8153424B2, “Method of in vitro differentiation of neural stem cells, motor neurons and dopamine neurons from primate embryonic stem cells” (Wisconsin Alumni Research Foundation, priority 2001, dated 2012)
Entries after “also recorded” stand apart in the source; their conditions may differ.

Experiments:
Assay type in all cases: cell-based, human
[1] = tested on: hESC-derived neuroectodermal cells; test: Motor neuron induction in adherent culture, immunocytochemistry and HB9 cell counting
Protocol: hESCs (lines H1 and H9, passages 19 to 42) were cultured and passaged weekly on a feeder layer of irradiated embryonic mouse fibroblasts as described (Thomson et al., supra, 1998). The undifferentiated state of ESCs were confirmed by typical morphology and expression of Oct4 and SSEA4. For neuroectodermal differentiation, hESCs were aggregated for four days and then cultured on an adhesive plastic surface for ten days in F12/DMEM supplemented with N2, heparin (2 ng/ml), and FGF2 (20 ng/ml) or RA (Zhang et al., supra, 2001). […]
Primary antibodies used in this study included polyclonal antibodies against neuronal class III βIII-tubulin (Covance Research Products, Richmond, Calif., 1:2000), nestin (Chemicon, Temecula, Calif., 1:750), Sox1 (Chemicon, 1:1000), synapsin I (Calbiochem, Darmstadt, German, 1:500), ChAT (Chemicon, 1:50), and VAChT (Chemicon, 1:1000), Isl½ (S. Pfaff), Otx2 (F. Vaccarino), and Oig2 (M. Nakafuku). […] For identification of electrophysiologically recorded cells, biocytin (Molecular Probes) filled cells were labeled with streptavidin-FITC (sigma, 1:200) and stained for ChAT. […]
The population of HB9-expressing cells among total differentiated cells (Hoechst labeled) was counted by a person who was blind to experimental groups either manually using the Metamorph software (Universal Imaging Corporation, Downingtown, Pa.) or by stereological measurement. […]

[2] = tested on: hESC-derived neural precursors; test: BrdU incorporation by dissociated ES cell-derived neural precursors; conditions: FGF2 20 ng/ml, EGF 20 ng/ml, LIF 5 ng/ml; each alone
Protocol: Histochemical and immunohistochemical staining. To better visualize the rosette formations, cultures with rosettes were rinsed with PBS and fixed in 4% paraformaldehyde and 0.25% glutaraldehyde for 1 hour. The fixed cells were then processed for embedding in plastic resin as described (Zhang et al., supra, 1999). The cultured cells were then sectioned in 1-μm thickness and stained with toluidine blue. For immunostaining, the coverslip cultures were immunostained with the following primary antibodies detected by appropriate fluorescent secondary antibodies detailed elsewhere (Zhang et al., supra, 2000; Zhang et al., supra, 1999): anti-nestin (polyclonal, gift of Dr. R. McKay of NINDS, 1:1,000); anti-polysialylated neuronal cell adhesion molecule (PSA-NCAM, mouse IgM, gift of Dr. G. Rougon of University of Marseille, France, 1:200); anti-Musashi-1 (rat IgG, gift of Dr. H. Okano, University of Tokyo, Japan, 1:500); anti-GFAP (polyclonal, Dako, 1:1,000); anti-human GFAP (Sternberg monoclonals, 1:10,000); O4 (mouse IgM, hybridoma supernatant, 1:50); anti-tyrosine hydroxylase (TH, Pel Freez, 1:500). The remaining antibodies were from Sigma: anti-βIII-tubulin (mouse IgG, 1:500); anti-neurofilament (NF) 68 (mouse IgG, 1:1,000); anti-NF 200 (polyclonal, 1:5,000); anti-MAP2ab (mouse IgG, 1:250); anti-γ-aminobutyric acid (GABA, polyclonal, 1:10,000); anti-glutamate (mouse IgG, 1:10,000). For bromodeoxyuridine (BrdU) incorporation, 4 coverslip cultures in each group were incubated with 2 μM of BrdU for sixteen hours before the cultures were fixed in 4% paraformaldehyde, denatured with 1N HCl and processed for immunolabeling and cell counting (Zhang et al., supra, 2000; Zhang et al., supra, 1999).

[3] = tested on: hESC-derived neuroepithelial cells; test: Ventral spinal progenitor and motor neuron differentiation in suspension culture, immunocytochemistry, cell counting and FACS
Protocol: For motor neuron induction, hESC-derived neuroepithelial cells at day 10 were first treated with RA (0.1 μM) for caudalization in a neural medium, which consisted of DMEM/F12 (Gibco), N2 supplement, heparin (Sigma, 2 μg/ml) and cAMP (Sigma, 1 μM). One week later (day 17), the posteriorized neuroectodermal cells were isolated, and suspended in the same neural medium in the presence of RA (0.1 μM) and SHH (100-200 ng/ml; R&D, 1845-SH) for one week. After that (day 24), brain-derived neurotrophic factor (BDNF), glial-derived neurotrophic factor (GDNF) and insulin-like growth factor-1 (IGF1) (10 ng/ml, PeproTech Inc.) were added to the culture. Purmorphamine (Calbiochem) at different concentrations (0.5, 1, 2 and 5 μM) was used instead of SHH in some experiments (see Results).
Immunohistochemical staining was performed according to Zhang et al., (Zhang et al. (2001), supra). Primary antibodies used in this study included polyclonal antibodies against Olig2 (1:500, Santa Cruz), Ki67 (1:200, Zymed), Otx2 (1:2000, Chemicon) and ChAT (1:200, Chemicon). Antibodies against MNR2 or HB9 (81.5C10) (1:50), Pax7 (1:2000), Nkx2.2 (1:50) and Hoxb4 (1:50) were purchased from Developmental Studies Hybridoma Bank (DSHB, Iowa City, Iowa). Polyclonal Phox2b and Irx3 antibodies were kindly provided by Dr. Jean-François Brunet (CNRS; École Normale Supérieure, Paris) and Dr. Thomas Jessell (Columbia University; New York, N.Y.), respectively. Images were collected using a Spot digital camera mounted onto a Nikon fluorescent microscope 600 (Fryer Inc.; Huntley, Ill.) or a confocal microscope (Nikon; Tokyo, Japan).
The population of Olig2 or HB9-expressing cells among total differentiated cells (Hoechst labeled) was counted in two ways, as previously described (Li et al. (2005), supra). Six to twelve clusters in each group were counted and data were expressed as Mean ± SEM. Differences between groups were compared by ANOVA test, and the statistical significance was defined as two-sided (p=0.05).
Cells were harvested using Accutase® (Innovative Cell), gently dissociated to single cells and washed with a FACS buffer (PBS, 0.1% NaN3, 2% donkey serum). After being fixed and permeabilized with ice cold 0.1% paraformaldehyde for 10 minutes and with 90% methanol for 30 minutes, cells Were then incubated in primary antibody (Olig2, goat IgG, 1:500) or a goat IgG control at […]. Cells were then washed and incubated with a corresponding secondary antibody, such as Alexa 488 conjugated, donkey, anti-goat IgG, for 2 hours followed by washing steps. Cells were analyzed by a Becton Dickinson FACSCaliber and analyzed with CellQuest Pro (BD Biosciences).

[4] = tested on: SHH pathway; test: RT-PCR of transcription factors in caudalized NE after 1 week of treatment
Protocol: Total RNA was extracted from motor neuron differentiation cultures using RNA STAT-60 (Tel-Test, Inc.; […] Carlsbad, Calif.) according to the manufacturer's protocol and was used as templates for the PCR reaction. PCR reaction was performed in a 15 μl mixture containing cDNA, primers and 1×PCR Master mix (Promega; Madison, Wis.). The following primers were used: Olig-2,[NT] ID NO:21), [NT] ID NO:22), 315 bp; […] ID NO:23), [NT] ID NO:24), 337 bp; […] ID NO:25), [NT] ID NO:26), 473 bp; […] ID NO:27), [NT] ID NO:28), 459 bp; […] ID NO:31), [NT] ID NO:32), 335 bp; GAPDH, [NT] ID NO:1), [NT] ID NO:2), 450 bp; […] ID NO:33), [NT] ID NO:34), 269 bp; […] ID NO:35), [NT] ID NO:36), 399 bp; […] ID NO:37), [NT] ID NO:38), 352 bp; and Gli1, [NT] ID NO:39), [NT] ID NO:40), 185 bp.

[5] = tested on: hESC-derived motor neurons; test: Whole-cell patch-clamp of hESC-derived motor neurons, spontaneous synaptic currents; conditions: combination of D-AP5 (40 μM) and CNQX (20 μM)

CC1=C(/C=C/C(C)=C/C=C/C(C)=C/C(=O)O)C(C)(C)CCC1 [RA, retinoic acid]
RA concentration inducing the highest proportion of HB9+ cells [1]: 0.1 to 1.0 µM
RA dose resulting in degeneration of some cells ([1]; chemically defined adherent cultures): over 1.0 μM

EGF: epidermal growth factor (NSDSECPLSHDGYCLHDGVCMYIEALDKYACNCVVGYIGERCQYRDLKWWELR; Epidermal growth factor; UniProt P01133 971-1023, looked up)
BrdU incorporation (stimulation of precursor cell proliferation) [2]: could not be elicited

LIF: leukemia inhibitory factor
BrdU incorporation (stimulation of precursor cell proliferation) [2]: could not be elicited

c1ccc2c(Oc3nc(Nc4ccc(N5CCOCC5)cc4)c4ncn(C5CCCCC5)c4n3)cccc2c1 [purmorphamine]
Time of treatment until Olig2+ cells first observed ([3]; after isolating NE cells (day 22 of hESC differentiation), a few days earlier than SHH/RA): ≤ 5 days
Olig2+ cells (highest percentage) ([3]; purmorphamine 1 μM with RA, 3.5 weeks, confirmed by FACS): around 40%
Olig2 expression in progenitors ([3]; purmorphamine 0.5, 1 and 2 uM in the presence of RA 0.1 μM, 3.5 weeks): robustly induced; also recorded: dose-dependent manner
Induction of Olig2+ or HB9+ cells ([3]; purmorphamine alone (without RA) from day 17): not sufficient
Expression of Olig2 and HB9 ([3]; purmorphamine with RA, 4.5 week): over 40%
Olig2+ motor neuron progenitors and HB9+ motor neurons of differentiated population ([3]; purmorphamine with RA, 4.5 weeks of hESC differentiation): at least 80%
HB9+ motor neurons also positive for ChAT ([3]; purmorphamine, attachment on coverslips and another week of differentiation): most
Expression pattern of class II factors (Nkx6.1, Nkx2.2) compared with SHH ([4]; 1 week of purmorphamine treatment): almost identical expression pattern
mRNA for Gli1 ([4]; 1 week of treatment): increased levels

N[C@H](CCCP(=O)(O)O)C(=O)O [D-AP5, D-2-amino-5-phosphonovaleric acid]
Effect on remaining inward (excitatory) synaptic currents [5]: blocked

N#Cc1cc2c(cc1[N+](=O)[O-])=NC(=O)C(=O)N=2 [CNQX, 6-cyano-7-nitroquinoxaline-2,3-dione]
Effect on remaining inward (excitatory) synaptic currents [5]: blocked
